Assay [1] deals with T1, Protein deacetylase HDAC6 (Homo sapiens, UniProt Q9UBN7).
T1 sequence (Q9UBN7 whole entry): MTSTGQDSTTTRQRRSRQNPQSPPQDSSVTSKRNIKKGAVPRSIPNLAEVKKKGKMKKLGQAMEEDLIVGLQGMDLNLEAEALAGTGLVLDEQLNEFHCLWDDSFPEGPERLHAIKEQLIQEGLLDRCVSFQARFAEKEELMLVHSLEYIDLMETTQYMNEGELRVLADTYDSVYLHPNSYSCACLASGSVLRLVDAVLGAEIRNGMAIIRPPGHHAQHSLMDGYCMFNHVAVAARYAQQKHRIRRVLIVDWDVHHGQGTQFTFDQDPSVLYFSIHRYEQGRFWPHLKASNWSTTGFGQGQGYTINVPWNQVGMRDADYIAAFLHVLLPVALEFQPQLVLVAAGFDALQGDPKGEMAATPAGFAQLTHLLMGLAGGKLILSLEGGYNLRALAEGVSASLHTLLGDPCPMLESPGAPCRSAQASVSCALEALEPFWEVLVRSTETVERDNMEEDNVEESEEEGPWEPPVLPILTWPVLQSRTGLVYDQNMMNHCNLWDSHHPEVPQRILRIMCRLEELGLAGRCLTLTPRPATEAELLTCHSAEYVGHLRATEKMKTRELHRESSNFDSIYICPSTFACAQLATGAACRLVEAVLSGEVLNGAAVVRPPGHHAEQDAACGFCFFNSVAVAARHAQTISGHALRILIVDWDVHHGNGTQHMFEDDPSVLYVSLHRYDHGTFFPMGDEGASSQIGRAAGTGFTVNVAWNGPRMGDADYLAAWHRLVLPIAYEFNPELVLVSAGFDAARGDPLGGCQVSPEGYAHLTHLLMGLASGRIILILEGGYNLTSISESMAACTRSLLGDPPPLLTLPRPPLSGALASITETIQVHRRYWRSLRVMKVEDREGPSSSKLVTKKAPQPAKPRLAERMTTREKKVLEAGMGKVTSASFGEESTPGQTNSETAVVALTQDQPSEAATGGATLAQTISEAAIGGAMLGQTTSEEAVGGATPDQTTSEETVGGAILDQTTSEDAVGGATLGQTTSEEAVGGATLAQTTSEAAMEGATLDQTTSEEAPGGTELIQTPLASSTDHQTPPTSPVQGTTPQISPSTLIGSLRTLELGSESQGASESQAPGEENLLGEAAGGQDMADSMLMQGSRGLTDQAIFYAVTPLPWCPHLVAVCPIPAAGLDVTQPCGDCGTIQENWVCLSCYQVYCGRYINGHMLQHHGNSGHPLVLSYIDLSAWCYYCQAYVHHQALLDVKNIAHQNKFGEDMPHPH
As to the kind of experiment: Displacement of FITC-labeled RLRGG peptide from N-terminal His6-tagged HDAC6 zinc-finger ubiquitin binding domain (1109 to 1215 residues)(unknown origin) expressed in Escherichia coli BL21(DE3) after 10 mins by fluorescence polarization assay. On the technique in general: In fluorescence polarisation assays a small probe gives low polarisation when free and higher when bound to something large.

Assay [2] addresses T1, Protein deacetylase HDAC6. As to the kind of experiment: Binding affinity to N-terminal His6-tagged HDAC6 zinc-finger ubiquitin binding domain (1109 to 1215 residues)(unknown origin) expressed in Escherichia coli BL21(DE3) by isothermal titration calorimetry. Background: In ITC the heat of successive injections is recorded.
Assay [3] deals with T1, Protein deacetylase HDAC6. Put plainly: Binding affinity to N-terminal Avi-tagged/C-terminal His6-tagged HDAC6 zinc-finger ubiquitin binding domain (1109 to 1215 residues)(unknown origin) expressed in Escherichia coli BL21(DE3) after 30 secs by SPR assay. (In general: Surface plasmon resonance follows binding to a sensor surface in real time, without labels.)

As a reminder, the IC50 is the midpoint of a concentration-inhibition curve. As for `O=C(O)CCc1nc2ccccc2nc1OCc1ccccc1`, in assay [1], the IC50 result was “Not Active”.

The term Kd denotes the equilibrium constant for the complex coming apart. Regarding `Cc1n[nH]c(=O)nc1Nc1ccc(C(C)C)cc1`, in assay [1], the 50% inhibitory concentration (IC50) entry was “Not Active”. Besides, the Kd result in assay [2] and in assay [3] was “Not Active” each time.

In the case of `O=C(O)CCc1nc2ccccc2nc1OCCOc1ccccn1`, the IC50 in assay [1] (read-out: IC50) was 110 µM.

Turning to `Cn1c(=O)c(CCC(=O)O)nc2ccccc21`, the IC50 in assay [1] (read-out: IC50) was determined as 70 µM.

Consider `O=C(O)CCc1nc2cc(Cl)ccc2s1`, for which the IC50 in assay [1] (read-out: IC50) came out at 55 µM. Besides, the Kd in assay [2] (read-out: Kd) stood at 40 µM; in assay [3] (read-out: Kd), 60 µM.

Turning to `Cn1ccnc1COc1nc2ccccc2nc1CCC(=O)O`, in assay [1] (read-out: IC50), the concentration for half-maximal inhibition (IC50) came to 140 µM.

In the case of `Cc1cccc(OCCOc2nc3ccccc3nc2CCC(=O)O)c1`, in assay [1] (read-out: IC50), the 50% inhibitory concentration (IC50) was 180 µM.

With `O=C(O)CCn1nc(-c2cccnc2)ccc1=O`, the 50% inhibitory concentration (IC50) in assay [1] (read-out: IC50) was 350 µM. The Kd in assay [2] (read-out: Kd) turned out to be 210 µM; in assay [3] (read-out: Kd), 220 µM.

As to `O=C(O)CCc1nc2ccccc2nc1OCc1cccs1`, the half-maximal inhibitory concentration (IC50) result in assay [1] is listed as “Not Active”.

As for `O=C(O)CCc1nc2ccccc2nc1OCc1ccccn1`, the IC50 in assay [1] (read-out: IC50) amounted to 270 µM.

Regarding `CCC(=O)Nc1nc(C)cs1`, in assay [1], the IC50 entry is given as “Not Active”. Further, the Kd entry in assay [2] and in assay [3] was “Not Active” throughout.

`O=C(O)CCc1nc2ccccc2nc1Sc1ccccc1`: the concentration for half-maximal inhibition (IC50) in assay [1] (read-out: IC50) was 60 µM.

These data come from ChEMBL document CHEMBL4017545, “Small Molecule Antagonists of the Interaction between the Histone Deacetylase 6 Zinc-Finger Domain and Ubiquitin” (J Med Chem, 2017).
